# Assay results taken from patent US20080076812A1 (priority 2006, published 2008).
# Several values for one entry are separate records, joined by “and”; a condition that tells them apart may be missing. Identical values can stand only once.
# Assay: Drug-excipient compatibility study
# Conditions: binary drug/excipient mixture, 40° C./75% RH open bottle; sodium salt
# Description: This study was designed to evaluate the effects of various diluents, binders, disintegrants, lubricants, buffering agents, and antioxidants on the stability of the drug substance.
compound,measurement,value
"Cc1cc2c(cc1CC(=O)c1sccc1S(=O)(=O)[N-]c1onc(C)c1Cl)OCO2.[Na+] [Sitaxsentan Sodium, N-(4-chloro-3-methyl-5-isoxazolyl)-2-[2-methyl-4,5-(methylenedioxy)phenylacetyl]-thiophene-3-sulfonamide, sodium salt]",Assay (%) T = 2 Weeks,98.0%
same,Total Related Substanes (%) T = 2 Weeks,0.19% and 0.18%
same,Total Related Substanes (%) T = 4 Weeks,0.24% and 0.12%
